Laboratory results taken from ChEMBL document CHEMBL1944522, “Design, synthesis, and anaplastic lymphoma kinase (ALK) inhibitory activity for a novel series of 2,4,8,22-tetraazatetracyclo[14.3.1.1³,⁷.1⁹,¹³]docosa-1(20),3(22),4,6,9(21),10,12,16,18-nonaene macrocycles” (J Med Chem, 2012).

The compounds below were run against ALK tyrosine kinase receptor (Homo sapiens, UniProt Q9UM73) (assay: Inhibition of baculovirus expressed GST-tagged human ALK cytoplasmic domain using PLCgamma as substrate after 15 mins by time-resolved fluorescence analysis).
Chain of ALK tyrosine kinase receptor (Q9UM73 whole entry, the tested form may be a part): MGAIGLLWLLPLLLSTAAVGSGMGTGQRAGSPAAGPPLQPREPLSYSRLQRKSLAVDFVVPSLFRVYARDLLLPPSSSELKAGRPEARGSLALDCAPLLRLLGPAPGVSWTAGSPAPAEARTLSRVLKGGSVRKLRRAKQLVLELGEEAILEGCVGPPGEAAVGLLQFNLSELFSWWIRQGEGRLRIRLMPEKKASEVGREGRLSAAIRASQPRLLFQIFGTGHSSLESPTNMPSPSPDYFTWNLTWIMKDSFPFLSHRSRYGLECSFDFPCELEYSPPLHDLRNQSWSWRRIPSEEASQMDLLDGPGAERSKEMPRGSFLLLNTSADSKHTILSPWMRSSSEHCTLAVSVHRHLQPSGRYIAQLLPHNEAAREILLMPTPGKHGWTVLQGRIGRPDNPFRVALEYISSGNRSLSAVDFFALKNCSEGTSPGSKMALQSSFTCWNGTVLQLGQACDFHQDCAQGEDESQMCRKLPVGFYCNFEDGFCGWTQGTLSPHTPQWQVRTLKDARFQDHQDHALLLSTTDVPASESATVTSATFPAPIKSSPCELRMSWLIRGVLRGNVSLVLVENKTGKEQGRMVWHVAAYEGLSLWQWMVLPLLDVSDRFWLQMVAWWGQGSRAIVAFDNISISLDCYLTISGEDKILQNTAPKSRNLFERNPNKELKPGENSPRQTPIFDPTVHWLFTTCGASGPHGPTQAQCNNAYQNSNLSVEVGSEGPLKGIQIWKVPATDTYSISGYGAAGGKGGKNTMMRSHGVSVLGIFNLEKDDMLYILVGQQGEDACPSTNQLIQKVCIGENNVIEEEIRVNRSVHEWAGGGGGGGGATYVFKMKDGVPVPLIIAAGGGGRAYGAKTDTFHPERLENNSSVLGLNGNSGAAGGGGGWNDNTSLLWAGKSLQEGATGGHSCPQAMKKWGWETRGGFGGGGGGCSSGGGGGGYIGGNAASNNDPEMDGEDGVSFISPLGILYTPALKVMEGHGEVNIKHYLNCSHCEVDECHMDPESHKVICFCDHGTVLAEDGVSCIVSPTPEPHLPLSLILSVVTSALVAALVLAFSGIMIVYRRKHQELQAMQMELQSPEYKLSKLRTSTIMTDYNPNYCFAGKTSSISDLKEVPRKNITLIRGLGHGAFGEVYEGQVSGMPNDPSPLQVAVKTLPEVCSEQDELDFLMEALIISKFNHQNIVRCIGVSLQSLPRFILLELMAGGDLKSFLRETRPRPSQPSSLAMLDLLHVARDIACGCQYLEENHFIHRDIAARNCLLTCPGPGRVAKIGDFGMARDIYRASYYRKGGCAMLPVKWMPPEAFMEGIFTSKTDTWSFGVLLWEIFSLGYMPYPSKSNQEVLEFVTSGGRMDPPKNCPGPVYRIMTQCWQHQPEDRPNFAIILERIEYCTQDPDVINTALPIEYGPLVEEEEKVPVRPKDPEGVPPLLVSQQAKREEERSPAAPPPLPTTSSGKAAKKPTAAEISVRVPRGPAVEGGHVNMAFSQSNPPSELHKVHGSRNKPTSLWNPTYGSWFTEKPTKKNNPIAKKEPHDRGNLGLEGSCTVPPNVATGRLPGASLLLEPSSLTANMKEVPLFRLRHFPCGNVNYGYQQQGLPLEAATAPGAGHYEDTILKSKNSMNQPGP

IC50	SMILES
> 10 µM	Clc1cnc2nc1Nc1cccc(c1)CCc1cc(ccc1N1CCOCC1)N2
> 1 µM	COc1ccc2cc1Nc1nc(ncc1Cl)Nc1ccc(N3CCOCC3)c(c1)CC2
> 10 µM	Clc1cnc2nc1Nc1cccc(c1)CCc1cccc(c1)N2
